Data set [1] is described as follows: Growth inhibition of human BJeLR cell by Trypan blue staining based analysis. Type of data set: toxicity. The following applies: BJeLR cells.
Data set [2] deals with T1, Cystine/glutamate transporter (Homo sapiens, UniProt Q9UPY5).
T1 sequence (Q9UPY5 whole entry): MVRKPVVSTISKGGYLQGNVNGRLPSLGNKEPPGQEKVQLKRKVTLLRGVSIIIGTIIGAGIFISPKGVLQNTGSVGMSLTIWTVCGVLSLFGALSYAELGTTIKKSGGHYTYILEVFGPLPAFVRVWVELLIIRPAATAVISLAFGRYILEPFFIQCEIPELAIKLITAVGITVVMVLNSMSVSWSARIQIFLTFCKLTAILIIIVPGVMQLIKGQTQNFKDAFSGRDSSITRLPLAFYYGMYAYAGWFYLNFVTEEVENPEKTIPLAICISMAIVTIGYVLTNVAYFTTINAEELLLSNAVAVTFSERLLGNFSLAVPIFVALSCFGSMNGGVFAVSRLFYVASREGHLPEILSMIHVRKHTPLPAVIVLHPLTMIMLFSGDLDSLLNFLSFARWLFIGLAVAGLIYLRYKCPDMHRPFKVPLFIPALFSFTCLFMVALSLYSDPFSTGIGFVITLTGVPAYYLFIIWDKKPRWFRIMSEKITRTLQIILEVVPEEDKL
Put plainly: Inhibition of Xc- in human HT-1080 cells assessed as decrease in glutamate release incubated for 2 hrs by Amplex red assay. Type of data set: cell-based.

SMILES strings stand for the structures.

In turn, `CC(C)Oc1ccc(CN2CCNCC2)cc1-n1c(CN2CCN(C(=O)COc3ccc(Cl)cc3)CC2)nc2ccccc2c1=O` showed a 50% growth inhibitory concentration (GI50) in data set [1] of 0.9 nM.
As for `CC(C)Oc1ccc(C=O)cc1-n1c(CN2CCN(C(=O)COc3ccc(Cl)cc3)CC2)nc2ccccc2c1=O`, the GI50 in data set [1] was 8 nM.
In turn, `CC(C)Oc1ccc(C(=O)CN2CCN(C)CC2)cc1-n1c(CN2CCN(C(=O)COc3ccc(Cl)cc3)CC2)nc2ccccc2c1=O` showed a GI50 in data set [1] of 474 nM. The IC50 in data set [2] worked out at 300 nM.
`CC(C)Oc1ccc(C(=O)CN2CCOCC2)cc1-n1c(CN2CCN(C(=O)COc3ccc(Cl)cc3)CC2)nc2ccccc2c1=O` returned a GI50 in data set [1] of 427 nM. The 50% inhibitory concentration (IC50) in data set [2] stood at 10 nM.
Regarding `CC(C)Oc1ccc(CN2CCOCC2)cc1-n1c(CN2CCN(C(=O)COc3ccc(Cl)cc3)CC2)nc2ccccc2c1=O`, the GI50 in data set [1] amounted to 0.13 nM.
`CC(C)Oc1ccncc1-n1c(CN2CCN(C(=O)COc3ccc(Cl)cc3)CC2)nc2ccccc2c1=O`: the GI50 in data set [1] is over 10 nM.
Regarding `CCOc1ccccc1-n1c(C(C)N2CCN(C(=O)COc3ccc(Cl)cc3)CC2)nc2ccccc2c1=O` (centres undefined) [ERASTIN], in data set [1], it took 1.7 nM to inhibit growth by half (GI50).

The values above are taken from ChEMBL document CHEMBL5550084, “Ferroptosis and its modulators: A raising target for cancer and Alzheimer's disease” (Bioorg Med Chem, 2024).
